Laboratory results published in ChEMBL document CHEMBL5724806, “Unraveling interindividual differences and functional consequences of gut microbial metabolism of immunosuppressants” (2024).

Experiments:
Assay type in all cases: ADME
[1] = (§1) The drug is tested on the gut metagenome community of A-05 with ENA study accession number: PRJEB31790 for biotransformation under anaerobic condition. The drug concentrations were measured over 7 timepoints collected between 0 and 12 hours of incubation by liquid-chromatography-coupled mass spectrometry (LC–MS); design: dose 5 uM, timepoint 0, 0.75, 1.5, 3, 6, 9, 12 hours; details: 5 µM
[2] = The drug is tested on Bacteroides xylanisolvens strain: HM 722 for biotransformation under anaerobic condition. The drug concentrations were measured over 6 timepoints collected between 0 and 12 hours of incubation by liquid-chromatography-coupled mass spectrometry (LC–MS); design: dose 5 uM, timepoint 0, 1.5, 3, 6, 9, 12 hours; details: 5 µM
[3] = The drug is tested on Gemella morbillorum strain: DSM20572 for biotransformation under anaerobic condition. The drug concentrations were measured over 6 timepoints collected between 0 and 12 hours of incubation by liquid-chromatography-coupled mass spectrometry (LC–MS); design: dose 5 uM, timepoint 0, 1.5, 3, 6, 9, 12 hours; details: 5 µM
[4] = The drug is tested on Bacteroides ovatus strain: ATCC 8483 for biotransformation under anaerobic condition. The drug concentrations were measured over 6 timepoints collected between 0 and 12 hours of incubation by liquid-chromatography-coupled mass spectrometry (LC–MS); design: dose 5 uM, timepoint 0, 1.5, 3, 6, 9, 12 hours; details: 5 µM
[5] = The drug is tested on Lactobacillus ruminis strain: ATCC25644 for biotransformation under microaerobic condition. The drug concentrations were measured over 6 timepoints collected between 0 and 12 hours of incubation by liquid-chromatography-coupled mass spectrometry (LC–MS); design: dose 5 uM, timepoint 0, 1.5, 3, 6, 9, 12 hours; details: ligilactobacillus ruminis, 5 µM
[6] = as §1, with “A-07” for “A-05”; design: dose 5 uM, timepoint 0, 0.75, 1.5, 3, 6, 9, 12 hours; details: 5 µM
[7] = as §1, with “A-08” for “A-05”, “microaerobic” for “anaerobic”; design: dose 5 uM, timepoint 0, 0.75, 1.5, 3, 6, 9, 12 hours; details: 5 µM
[8] = as §1, with “A-02” for “A-05”; design: dose 5 uM, timepoint 0, 0.75, 1.5, 3, 6, 9, 12 hours; details: 5 µM
[9] = The drug is tested on Enterococcus faecalis strain: ATCC29212 for biotransformation under anaerobic condition. The drug concentrations were measured over 6 timepoints collected between 0 and 12 hours of incubation by liquid-chromatography-coupled mass spectrometry (LC–MS); design: dose 5 uM, timepoint 0, 1.5, 3, 6, 9, 12 hours; details: 5 µM
[10] = The drug is tested on Capnocytophaga ochracea strain: DSM7271 for biotransformation under anaerobic condition. The drug concentrations were measured over 6 timepoints collected between 0 and 12 hours of incubation by liquid-chromatography-coupled mass spectrometry (LC–MS); design: dose 5 uM, timepoint 0, 1.5, 3, 6, 9, 12 hours; details: 5 µM
[11] = The drug is tested on Collinsella aerofaciens strain: DSM3979 for biotransformation under anaerobic condition. The drug concentrations were measured over 6 timepoints collected between 0 and 12 hours of incubation by liquid-chromatography-coupled mass spectrometry (LC–MS); design: dose 5 uM, timepoint 0, 1.5, 3, 6, 9, 12 hours; details: 5 µM

Compound | Bacterial Biotransformation [1] | Bacterial Biotransformation [2] | Bacterial Biotransformation [3] | Bacterial Biotransformation [4] | Bacterial Biotransformation [5] | Bacterial Biotransformation [6] | Bacterial Biotransformation [7] | Bacterial Biotransformation [8] | Bacterial Biotransformation [9] | Bacterial Biotransformation [10] | Bacterial Biotransformation [11]
NS(=O)(=O)c1cc(C(=O)O)c(NCc2ccco2)cc1Cl [FUROSEMIDE] | Compound NOT metabolized | Compound NOT metabolized | Compound NOT metabolized | Compound NOT metabolized | Compound NOT metabolized | Compound NOT metabolized | Compound NOT metabolized | Compound NOT metabolized | Compound NOT metabolized | Compound NOT metabolized | Compound NOT metabolized
C[C@]12CCC(=O)C=C1CC[C@@H]1[C@@H]2[C@@H](O)C[C@@]2(C)[C@H]1CC[C@]2(O)C(=O)CO [HYDROCORTISONE] | Compound metabolized | Compound NOT metabolized | Compound NOT metabolized | Compound NOT metabolized | Compound NOT metabolized | Compound metabolized | Compound metabolized | Compound metabolized | Compound NOT metabolized | Compound NOT metabolized | Compound NOT metabolized
CN(Cc1cnc2nc(N)nc(N)c2n1)c1ccc(C(=O)N[C@@H](CCC(=O)O)C(=O)O)cc1 [METHOTREXATE] | Compound NOT metabolized | Compound NOT metabolized | Compound NOT metabolized | Compound NOT metabolized | Compound NOT metabolized | Compound metabolized | Compound metabolized | Compound metabolized | Compound NOT metabolized | Compound NOT metabolized | Compound NOT metabolized
C[C@H]1C[C@@H]2[C@H]([C@@H](O)C[C@@]3(C)[C@H]2CC[C@]3(O)C(=O)CO)[C@@]2(C)C=CC(=O)C=C12 [METHYLPREDNISOLONE] | Compound metabolized | Compound NOT metabolized | Compound NOT metabolized | Compound NOT metabolized | Compound NOT metabolized | Compound metabolized | Compound metabolized | Compound metabolized | Compound NOT metabolized | Compound NOT metabolized | Compound NOT metabolized
COc1c(C)c2c(c(O)c1C/C=C(\C)CCC(=O)OCCN1CCOCC1)C(=O)OC2 [MYCOPHENOLATE MOFETIL] | Compound metabolized | Compound metabolized | Compound metabolized | Compound metabolized | Compound metabolized | Compound metabolized | Compound metabolized | Compound metabolized | Compound metabolized | Compound NOT metabolized | Compound metabolized

The remaining lines, values ahead:

Bacterial Biotransformation [1] | Bacterial Biotransformation [2] | Bacterial Biotransformation [3] | Bacterial Biotransformation [4] | Bacterial Biotransformation [5] | Bacterial Biotransformation [6] | Bacterial Biotransformation [7] | Bacterial Biotransformation [8] | Bacterial Biotransformation [9] | Bacterial Biotransformation [10] | Bacterial Biotransformation [11] | Compound
Compound NOT metabolized | Compound NOT metabolized | Compound NOT metabolized | Compound NOT metabolized | Compound NOT metabolized | Compound NOT metabolized | Compound NOT metabolized | Compound NOT metabolized | Compound NOT metabolized | Compound NOT metabolized | Compound NOT metabolized | COc1c(C)c2c(c(O)c1C/C=C(\C)CCC(=O)O)C(=O)OC2 [MYCOPHENOLIC ACID]
Compound metabolized | Compound NOT metabolized | Compound NOT metabolized | Compound NOT metabolized | Compound NOT metabolized | Compound metabolized | Compound metabolized | Compound metabolized | Compound NOT metabolized | Compound NOT metabolized | Compound NOT metabolized | C[C@]12C=CC(=O)C=C1CC[C@@H]1[C@@H]2[C@@H](O)C[C@@]2(C)[C@H]1CC[C@]2(O)C(=O)CO [PREDNISOLONE]
Compound metabolized | Compound NOT metabolized | Compound NOT metabolized | Compound NOT metabolized | Compound NOT metabolized | Compound metabolized | Compound metabolized | Compound metabolized | Compound NOT metabolized | Compound NOT metabolized | Compound NOT metabolized | C[C@]12C=CC(=O)C=C1CC[C@@H]1[C@@H]2C(=O)C[C@@]2(C)[C@H]1CC[C@]2(O)C(=O)CO [PREDNISONE]
Compound NOT metabolized | Compound metabolized | Compound NOT metabolized | Compound metabolized | Compound NOT metabolized | Compound NOT metabolized | Compound metabolized | Compound metabolized | Compound NOT metabolized | Compound NOT metabolized | Compound NOT metabolized | CNC(=C[N+](=O)[O-])NCCSCc1ccc(CN(C)C)o1 [RANITIDINE]
Compound NOT metabolized | Compound NOT metabolized | Compound NOT metabolized | Compound NOT metabolized | Compound NOT metabolized | Compound NOT metabolized | Compound NOT metabolized | Compound metabolized | Compound NOT metabolized | Compound NOT metabolized | Compound NOT metabolized | CCC(C)(C)C(=O)O[C@H]1C[C@@H](C)C=C2C=C[C@H](C)[C@H](CC[C@@H]3C[C@@H](O)CC(=O)O3)[C@H]21 [SIMVASTATIN]
Compound metabolized | Compound NOT metabolized | Compound metabolized | Compound NOT metabolized | Compound NOT metabolized | Compound metabolized | Compound metabolized | Compound metabolized | Compound metabolized | Compound metabolized | Compound metabolized | CO[C@H]1C[C@@H]2CC[C@@H](C)[C@@](O)(O2)C(=O)C(=O)N2CCCC[C@H]2C(=O)O[C@H]([C@H](C)C[C@@H]2CC[C@@H](O)[C@H](OC)C2)CC(=O)[C@H](C)/C=C(\C)[C@@H](O)[C@@H](OC)C(=O)[C@H](C)C[C@H](C)/C=C/C=C/C=C/1C [SIROLIMUS]
Compound NOT metabolized | Compound NOT metabolized | Compound NOT metabolized | Compound NOT metabolized | Compound NOT metabolized | Compound metabolized | Compound metabolized | Compound NOT metabolized | Compound metabolized | Compound NOT metabolized | Compound metabolized | C=CC[C@@H]1/C=C(\C)C[C@H](C)C[C@H](OC)[C@H]2O[C@@](O)(C(=O)C(=O)N3CCCC[C@H]3C(=O)O[C@H](/C(C)=C/[C@@H]3CC[C@@H](O)[C@H](OC)C3)[C@H](C)[C@@H](O)CC1=O)[C@H](C)C[C@@H]2OC.O [TACROLIMUS]
